According to US10464906B2, “Crystalline forms of a histone deacetylase inhibitor” (Acetylon Pharmaceuticals, Inc., priority 2015, dated 2019):
Values after ≈ are worked out from the molar mass of the structure shown. “Also recorded” adds a separate entry of the source. Like-named read-outs stand apart in the source and are kept apart here.

Columns and labels:
Assay type in all cases: physicochemical
[1] = Solid form stability test (up to 7 days) under high humidity, XRPD
Method: In one aspect, provided herein is 2-((2-chlorophenyl)(phenyl)amino)-N-(7-(hydroxyamino)-7-oxoheptyl)pyrimidine-5-carboxamide of Form I (referred to herein as “Form I”). Form I (of Compound (I)) was observed under a polarized microscope and its crystalline nature was determined by using X-ray powder diffraction (XRPD) and Pattern A was assigned to it for identification (See Example 3). The chemical structure of the material was confirmed by proton-nuclear magnetic resonance (^1H-NMR) and the thermal characterization of the material was carried out by differential scanning calorimetry (DSC) and thermal gravimetric analysis (TGA) (see Examples 2 and 3). […] The XRPD analysis of this form including peak identification is found in Example 11 (See FIG. 40).

[2] = Dynamic vapor sorption (DVS) with post-DVS XRPD
Method: Samples were analyzed using an Aquadyne DVS-2 gravimetric water sorption analyzer. The relative humidity was adjusted between 2-95% and the weight of the sample was continuously monitored and recorded with respect to the relative humidity and time.
The material was subjected under Dynamic Vapor Sorption (DVS, FIG. 6).

[3] = Solubility assessment of Form I, gravimetric, slurried 48 h in solvents/solvent mixtures; conditions: thermodynamic from solid
Method: The Solubility of Form I was measured gravimetrically in 15 different solvents and solvent mixtures at 15 and 45° C. About 75 mg of the compound was dispensed in 10 volumes (750 μL) of the solvent/solvent mixture and slurried for 48 h.
The vials were centrifuged. The supernatant was collected and left for slow evaporation under vacuum at 45° C. The solids obtained after evaporation were used to determine the solubility of Form I and analyzed by XRPD for any new forms.

[4] = Stability of crystalline forms under dry (vacuum, 45° C.) and humid (RH >95%) conditions, XRPD; conditions: dried under vacuum at 45° C.
Method: For dry conditions, the sample was dried under vacuum at 45° C. followed by XRPD analysis. Later the sample was subjected to high humidity conditions (RH >95%) followed by XRPD analysis.
The MeOH and DCM solvates of Compound (I) were dried on XRPD plates under vacuum at 45° C. and were analyzed by XRPD the following day.
Pattern E was dried at 45° C. under vacuum overnight and analyzed by XRPD. The following day, it was subjected to high humidity conditions (>95%) and later analyzed by XRPD the next day. […] FIG. 26 illustrates the XRPD comparison of dried and humid samples with Compound (I), Form I, Pattern A.

[5] = Dynamic vapor sorption (DVS) with post-DVS XRPD; conditions: relative humidity between 0-95%

**Q.** For `O=C(CCCCCCNC(=O)c1cnc(N(c2ccccc2)c2ccccc2Cl)nc1)NO` [Form I, 2-((2-chlorophenyl)(phenyl)amino)-N-(7-(hydroxyamino)-7-oxoheptyl)pyrimidine-5-carboxamide], which “Solid form stability under high humidity (XRPD)” value [1] is on record?
**A.** The value was “stability of Form I up to seven days; also recorded: stable under high humidity up to a week”.

**Q.** And the Hygroscopicity [2]?
**A.** The Hygroscopicity was “low hygroscopicity”.

**Q.** And the “Post DVS XRPD (crystalline form after DVS)” value ([2]; XRPD of the post-DVS sample)?
**A.** Its value is “no change in the crystalline form; also recorded: Pattern A,”.

**Q.** And the solubility at 48 h ([3]; aqueous with cosolvent or surfactant or cyclodextrin, EtOH:H2O (1:1), temperature not stated, read-out: Solubility (moderately soluble))?
**A.** Its solubility at 48 h is 10 to 55 mg/mL (≈ 21.4 to 118 mM).

**Q.** And the solubility at 48 h ([3]; aqueous with cosolvent or surfactant or cyclodextrin, acetone:H2O (1:1), temperature not stated, read-out: Solubility (moderately soluble))?
**A.** The solubility at 48 h was 10 to 55 mg/mL (≈ 21.4 to 118 mM).

**Q.** What about the solubility at 48 h ([3]; organic solvent or mixture, Acetone, 15° C., read-out: Solubility) of the same compound?
**A.** Its solubility at 48 h is 2 mg/mL (≈ 4.27 mM).

**Q.** What about the solubility at 48 h ([3]; organic solvent or mixture, Acetone, 45° C., read-out: Solubility) of the same compound?
**A.** The solubility at 48 h was 11 mg/mL (≈ 23.5 mM).

**Q.** And the solubility at 48 h ([3]; organic solvent or mixture, Acetone:H2O (95:5), 15° C., read-out: Solubility)?
**A.** The solubility at 48 h was 21 mg/mL (≈ 44.9 mM).

**Q.** What about the solubility at 48 h ([3]; organic solvent or mixture, Acetone:H2O (95:5), 45° C., read-out: Solubility) of the same compound?
**A.** The solubility at 48 h was 48 mg/mL (≈ 103 mM).

**Q.** What about the solubility at 48 h ([3]; organic solvent or mixture, Acetonitrile (ACN), 15° C., read-out: Solubility) of the same compound?
**A.** Its solubility at 48 h is under 1 mg/mL.

**Q.** What about the solubility at 48 h ([3]; organic solvent or mixture, Acetonitrile (ACN), 45° C., read-out: Solubility) of the same compound?
**A.** The solubility at 48 h was 1 mg/mL (≈ 2.14 mM).

**Q.** What about the solubility at 48 h ([3]; organic solvent or mixture, DCM, temperature not stated, read-out: Solubility (less soluble)) of the same compound?
**A.** Its solubility at 48 h is under 1 mg/mL.

**Q.** What about the solubility at 48 h ([3]; organic solvent or mixture, DMA, temperature not stated, read-out: Solubility (freely soluble)) of the same compound?
**A.** Its solubility at 48 h is over 100 mg/mL.

**Q.** And the solubility at 48 h ([3]; organic solvent or mixture, Dimethylacetamide (DMA), 15° C., read-out: Solubility)?
**A.** Its solubility at 48 h is over 100 mg/mL.

**Q.** What about the solubility at 48 h ([3]; organic solvent or mixture, Dimethylacetamide (DMA), 45° C., read-out: Solubility) of the same compound?
**A.** The solubility at 48 h was over 100 mg/mL.

**Q.** What about the solubility at 48 h ([3]; organic solvent or mixture, EtOAc, temperature not stated, read-out: Solubility (less soluble)) of the same compound?
**A.** The solubility at 48 h was under 1 mg/mL.

**Q.** What about the solubility at 48 h ([3]; organic solvent or mixture, EtOH, temperature not stated, read-out: Solubility (moderately soluble)) of the same compound?
**A.** Its solubility at 48 h is 10 to 55 mg/mL (≈ 21.4 to 118 mM).

**Q.** And the solubility at 48 h ([3]; organic solvent or mixture, EtOH:H2O (95:5), 15° C., read-out: Solubility)?
**A.** Its solubility at 48 h is 18 mg/mL (≈ 38.5 mM).

**Q.** And the solubility at 48 h ([3]; organic solvent or mixture, EtOH:H2O (95:5), 45° C., read-out: Solubility)?
**A.** The solubility at 48 h was 53 mg/mL (≈ 113 mM).

**Q.** What about the solubility at 48 h ([3]; organic solvent or mixture, Ethanol (EtOH), 15° C., read-out: Solubility) of the same compound?
**A.** Its solubility at 48 h is 11 mg/mL (≈ 23.5 mM).

**Q.** And the solubility at 48 h ([3]; organic solvent or mixture, Ethanol (EtOH), 45° C., read-out: Solubility)?
**A.** The solubility at 48 h was 39 mg/mL (≈ 83.3 mM).

**Q.** And the solubility at 48 h ([3]; organic solvent or mixture, Ethyl acetate (EtOAc), 15° C., read-out: Solubility)?
**A.** Its solubility at 48 h is under 1 mg/mL.

**Q.** What about the solubility at 48 h ([3]; organic solvent or mixture, Ethyl acetate (EtOAc), 45° C., read-out: Solubility) of the same compound?
**A.** The solubility at 48 h was 1 mg/mL (≈ 2.14 mM).

**Q.** What about the solubility at 48 h ([3]; organic solvent or mixture, Heptane (HEP), 15° C., read-out: Solubility) of the same compound?
**A.** The solubility at 48 h was under 1 mg/mL.

**Q.** And the solubility at 48 h ([3]; organic solvent or mixture, Heptane (HEP), 45° C., read-out: Solubility)?
**A.** The solubility at 48 h was under 1 mg/mL.

**Q.** And the solubility at 48 h ([3]; organic solvent or mixture, IPA, temperature not stated, read-out: Solubility (slightly soluble))?
**A.** Its solubility at 48 h is about 2 mg/mL (≈ 4.27 mM).

**Q.** What about the solubility at 48 h ([3]; organic solvent or mixture, Isopropanol (IPA), 15° C., read-out: Solubility) of the same compound?
**A.** Its solubility at 48 h is 1 mg/mL (≈ 2.14 mM).

**Q.** And the solubility at 48 h ([3]; organic solvent or mixture, Isopropanol (IPA), 45° C., read-out: Solubility)?
**A.** The solubility at 48 h was 12 mg/mL (≈ 25.6 mM).

**Q.** And the solubility at 48 h ([3]; organic solvent or mixture, MeOH, temperature not stated, read-out: Solubility (freely soluble))?
**A.** Its solubility at 48 h is over 100 mg/mL.

**Q.** What about the solubility at 48 h ([3]; organic solvent or mixture, Methanol (MeOH), 15° C., read-out: Solubility) of the same compound?
**A.** Its solubility at 48 h is 11 mg/mL (≈ 23.5 mM).

**Q.** And the solubility at 48 h ([3]; organic solvent or mixture, Methanol (MeOH), 45° C., read-out: Solubility)?
**A.** Its solubility at 48 h is over 100 mg/mL.

**Q.** And the solubility at 48 h ([3]; organic solvent or mixture, TBME, temperature not stated, read-out: Solubility (less soluble))?
**A.** Its solubility at 48 h is under 1 mg/mL.

**Q.** What about the solubility at 48 h ([3]; organic solvent or mixture, TFE, temperature not stated, read-out: Solubility (freely soluble)) of the same compound?
**A.** The solubility at 48 h was over 100 mg/mL.

**Q.** What about the solubility at 48 h ([3]; organic solvent or mixture, THF, temperature not stated, read-out: Solubility (moderately soluble)) of the same compound?
**A.** Its solubility at 48 h is 10 to 55 mg/mL (≈ 21.4 to 118 mM).

**Q.** What about the solubility at 48 h ([3]; organic solvent or mixture, Tert-butyl methyl ether (TBME), 15° C., read-out: Solubility) of the same compound?
**A.** Its solubility at 48 h is under 1 mg/mL.

**Q.** And the solubility at 48 h ([3]; organic solvent or mixture, Tert-butyl methyl ether (TBME), 45° C., read-out: Solubility)?
**A.** Its solubility at 48 h is 2 mg/mL (≈ 4.27 mM).

**Q.** And the solubility at 48 h ([3]; organic solvent or mixture, Tetrahydrofuran (THF), 15° C., read-out: Solubility)?
**A.** Its solubility at 48 h is 13 mg/mL (≈ 27.8 mM).

**Q.** And the solubility at 48 h ([3]; organic solvent or mixture, Tetrahydrofuran (THF), 45° C., read-out: Solubility)?
**A.** Its solubility at 48 h is 50 mg/mL (≈ 107 mM).

**Q.** What about the solubility at 48 h ([3]; organic solvent or mixture, acetone, temperature not stated, read-out: Solubility (slightly soluble)) of the same compound?
**A.** The solubility at 48 h was about 2 mg/mL (≈ 4.27 mM).

**Q.** What about the solubility at 48 h ([3]; organic solvent or mixture, acetonitrile, temperature not stated, read-out: Solubility (less soluble)) of the same compound?
**A.** The solubility at 48 h was under 1 mg/mL.

**Q.** What about the solubility at 48 h ([3]; organic solvent or mixture, heptane, temperature not stated, read-out: Solubility (less soluble)) of the same compound?
**A.** Its solubility at 48 h is under 1 mg/mL.

**Q.** What about the solubility at 48 h ([3]; Water (H2O), 15° C., read-out: Solubility) of the same compound?
**A.** The solubility at 48 h was under 1 mg/mL.

**Q.** And the solubility at 48 h ([3]; Water (H2O), 45° C., read-out: Solubility)?
**A.** Its solubility at 48 h is under 1 mg/mL.

**Q.** What about the solubility at 48 h ([3]; water, temperature not stated, read-out: Solubility (less soluble)) of the same compound?
**A.** Its solubility at 48 h is under 1 mg/mL.

**Q.** And the solubility at 48 h ([3]; trifluoroethanol (TFE), organic solvent or mixture, Trifluoro Ethanol (TFE), 15° C., read-out: Solubility)?
**A.** The solubility at 48 h was over 100 mg/mL.

**Q.** And the solubility at 48 h ([3]; trifluoroethanol (TFE), organic solvent or mixture, Trifluoro Ethanol (TFE), 45° C., read-out: Solubility)?
**A.** Its solubility at 48 h is over 100 mg/mL.

**Q.** And the “XRPD pattern after drying at 45° C. (under vacuum)” value [4]?
**A.** Its value is “Pattern A,”.

**Q.** And the “Moisture uptake (DVS)” value [5]?
**A.** Its value is “less than 0.2%”.
